Measurements as given in PubChem BioAssay (NCI).
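Test compounds were applied to cells in 96-well plates for 48 hours at 5 doses. GI50: concentration for 50% inhibition of growth. Definition used: TGI = concentration required for complete inhibition of growth.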

Assays:
Assay in all cases: inhibition of tumour cell growth, NCI panel, 48 h
MALME-3M melanoma = test system: MALME-3M melanoma
COLO 205 colon = test system: COLO 205 colon
SK-OV-3 ovarian = test system: SK-OV-3 ovarian
K-562 leukemia = test system: K-562 leukemia
A498 renal = test system: A498 renal
NCI-H522 lung = test system: NCI-H522 lung
OVCAR-3 ovarian = test system: OVCAR-3 ovarian
MDA-MB-435 = test system: MDA-MB-435
NCI/ADR-RES ovarian = test system: NCI/ADR-RES ovarian
MCF7 breast = test system: MCF7 breast

| SMILES | TGI (MALME-3M melanoma) [µM] | TGI (COLO 205 colon) [µM] | TGI (SK-OV-3 ovarian) [µM] | TGI (K-562 leukemia) [µM] | TGI (A498 renal) [µM] | TGI (NCI-H522 lung) [µM] | TGI (OVCAR-3 ovarian) [µM] | GI50 (MALME-3M melanoma) [µM] | GI50 (MDA-MB-435) [µM] | TGI (MDA-MB-435) [µM] | GI50 (COLO 205 colon) [µM] | GI50 (SK-OV-3 ovarian) [µM] | GI50 (K-562 leukemia) [µM] | GI50 (NCI-H522 lung) [µM] | GI50 (NCI/ADR-RES ovarian) [µM] | TGI (NCI/ADR-RES ovarian) [µM] | GI50 (MCF7 breast) [µM] | TGI (MCF7 breast) [µM] | GI50 (A498 renal) [µM] | GI50 (OVCAR-3 ovarian) [µM] |
| --- | --- | --- | --- | --- | --- | --- | --- | --- | --- | --- | --- | --- | --- | --- | --- | --- | --- | --- | --- | --- |
| Nc1c(-c2cn(Cc3ccccc3)c3ccccc23)[n+]([O-])c2ccccc2[n+]1[O-] | > 100 | > 100 | 95.3 | > 100 | 41.9 | 48.6 | 68.4 | – | – | – | – | – | – | – | – | – | – | – | – | – |
| O=C1/C(=C\c2ccc(F)cc2)CN(C(=O)c2ccccc2)C/C1=C\c1ccc(F)cc1 | 12.2 | 10 | 19.5 | > 100 | – | 7.73 | – | 3.66 | 2.11 | 5.65 | 3.15 | 5.95 | 0.983 | 2.35 | 4.14 | > 100 | 0.841 | 4.31 | – | – |
| COc1cccc2ccc(C(=O)c3ccccc3)nc12 | > 100 | > 100 | – | > 100 | – | > 100 | > 100 | – | – | – | – | – | – | – | – | – | – | – | – | – |
| CN1C(=O)CCC2[C@@H]3CC=C4C[C@@H](O)CC[C@]4(C)C3CC[C@@]21C (stereo partly specified) | > 100 | – | > 100 | > 100 | > 100 | – | > 100 | – | – | – | – | – | – | – | – | – | – | – | – | – |
| COc1ccc2c(c1)[n+]([O-])c(-c1ccc([N+](=O)[O-])cc1)c(N)[n+]2[O-] | > 100 | > 100 | > 100 | > 100 | > 100 | 32.9 | > 100 | – | – | – | – | – | – | – | – | – | – | – | – | – |
| O=C1CC(c2c(-c3ccccc3)[nH]c3ccccc23)C(=O)N1 (stereo unspecified) | > 100 | – | > 100 | > 100 | > 100 | – | > 100 | – | – | – | – | – | – | – | – | – | – | – | – | – |
| COc1ccc(C(=O)Nc2ncc(Cc3cccc(Cl)c3)s2)cc1OC | > 100 | > 100 | > 100 | > 100 | 1.89 | > 100 | 9.71 | 0.748 | – | – | 0.222 | 3.59 | – | 0.921 | 0.398 | > 100 | 0.36 | > 100 | 0.211 | 0.368 |
| C#CCNC(=O)N(CC#C)N=O | > 100 | – | > 100 | > 100 | > 100 | 41.6 | > 100 | – | – | – | – | – | – | – | – | – | – | – | – | – |
| O=C(O)/C=C/C(=O)N1Cc2cc3ccccc3nc2C1 | > 100 | > 100 | > 100 | > 100 | – | > 100 | > 100 | – | – | > 100 | – | – | – | – | – | > 100 | – | > 100 | – | – |
| COc1ccc(C(CCC(C)=O)C(=O)O)cc1OC (stereo unspecified) | > 100 | > 100 | – | > 100 | > 100 | – | > 100 | – | – | – | – | – | – | – | – | – | – | – | – | – |
| N.N.NCCCCCN.O=C([O-])CCl.O=C([O-])CCl.O=C([O-])CCl.O=C([O-])CCl.[Pt+4].[Pt+4] | 39.2 | 8.45 | 48.1 | > 100 | 31.2 | 73.8 | 49.2 | 11.9 | – | – | 1.78 | 8.01 | 37.2 | 3.3 | – | – | – | – | 11 | 17 |
| COc1c(C)cc(O)cc1C=O | > 100 | > 100 | > 100 | > 100 | – | > 100 | > 100 | – | – | – | – | – | – | – | – | – | – | – | – | – |
| CC(C)N1CC2CN(Cc3ccccc3)CC(C1)C2=O | > 100 | > 100 | > 100 | > 100 | – | > 100 | > 100 | – | – | > 100 | – | – | – | – | – | > 100 | – | > 100 | – | – |
| COc1ccccc1NC(=O)C1=C(C)NC(C)=C(C(=O)Nc2ccccc2OC)C1C1=CC=COC1 | > 100 | > 100 | 71.2 | 26 | 45.4 | – | 9.5 | – | – | – | – | – | – | – | – | – | – | – | – | – |
| COC(=O)CCC(NC(=S)N/N=C/c1ccccn1)C(=O)OC (stereo unspecified) | > 100 | > 100 | > 100 | > 100 | > 100 | > 100 | > 100 | – | – | – | – | – | – | – | – | – | – | – | – | – |
| CN(C)c1ccc(/C=C/C(=O)[O-])cc1.CN(C)c1ccc(/C=C/C(=O)[O-])cc1.[Cu+2] | > 100 | > 100 | > 95 | > 100 | > 86.4 | > 100 | > 100 | – | – | – | – | – | – | – | – | – | – | – | – | – |
| O=[N+]([O-])c1ccc(C2CC(c3ccccc3Cl)=Nc3ccccc3S2)cc1 (stereo unspecified) | 24.9 | > 57.6 | > 85.3 | 6.35 | 17.4 | 8.16 | 34.2 | – | – | – | – | – | – | – | – | – | – | – | – | – |
| Cc1cc([N+](=O)[O-])ccc1NC(=O)C(=O)C(C(=O)c1ccccc1-c1ccccc1)C1OC(=O)c2ccccc21 (stereo unspecified) | 29.9 | 41.8 | 65.6 | 89.3 | – | 26.2 | – | – | – | – | – | – | – | – | – | – | – | – | – | – |
| O=c1cc(-c2ccccc2)oc2ccc(OC/C(=N/O)c3ccccc3)cc12 | – | 25.3 | 16.2 | > 50 | – | > 50 | 3.93 | – | – | – | 1.89 | 1.1 | 2.53 | 2.88 | 3.3 | > 50 | – | – | – | 1.23 |
| CCC(CC)c1nc(Nc2ccc(C(=O)OC)cc2)c2ccccc2n1 | – | 15 | 19 | > 31.6 | – | 18.4 | 21 | – | > 18.3 | > 25.6 | 8.2 | 9.54 | 7.39 | 8.65 | 24.3 | > 34.7 | 24.2 | > 50 | – | 5.7 |
| c1ccc([CH2][Sn]([CH2]c2ccccc2)([O]c2cccc3cccnc23)[O]c2cccc3cccnc23)cc1 | 0.689 | 0.477 | 1.57 | – | 0.692 | 0.351 | 0.949 | 0.266 | – | – | 0.194 | 0.492 | – | 0.186 | – | – | – | – | 0.429 | 0.3 |
| CC(=O)Nc1ccc(/C=c2\sc3nnc(CCC(=O)Nc4ccccc4Cl)n3c2=O)cc1 | > 100 | – | > 100 | 68.3 | – | 36.2 | 47.4 | – | – | – | – | – | – | – | – | – | – | – | – | – |
| O=C(/C=C/c1ccco1)c1cc(F)c(Cl)cc1Cl | 38.7 | 38.4 | 80.1 | > 100 | 39.2 | 39.5 | 60.4 | 16.5 | 32.2 | > 100 | 18.6 | 24.5 | 30.2 | 18.4 | – | – | 14.1 | 63 | 18.7 | 21.4 |
